# From PMC9495423, “Identification of the Natural Steroid Sapogenin Diosgenin as a Direct Dual-Specific RORα/γ Inverse Agonist” (Biomedicines, 2022)
# How the values were obtained:
# RORα = molecular target: T1, RORα (Homo sapiens, UniProt P35398); assay: RORα-Gal4 luciferase reporter assay in HEK293 cells (inverse agonism); format: cell-based
# T1 construct: gene RORA; RORα-Gal4
# T1 sequence (P35398 1-523): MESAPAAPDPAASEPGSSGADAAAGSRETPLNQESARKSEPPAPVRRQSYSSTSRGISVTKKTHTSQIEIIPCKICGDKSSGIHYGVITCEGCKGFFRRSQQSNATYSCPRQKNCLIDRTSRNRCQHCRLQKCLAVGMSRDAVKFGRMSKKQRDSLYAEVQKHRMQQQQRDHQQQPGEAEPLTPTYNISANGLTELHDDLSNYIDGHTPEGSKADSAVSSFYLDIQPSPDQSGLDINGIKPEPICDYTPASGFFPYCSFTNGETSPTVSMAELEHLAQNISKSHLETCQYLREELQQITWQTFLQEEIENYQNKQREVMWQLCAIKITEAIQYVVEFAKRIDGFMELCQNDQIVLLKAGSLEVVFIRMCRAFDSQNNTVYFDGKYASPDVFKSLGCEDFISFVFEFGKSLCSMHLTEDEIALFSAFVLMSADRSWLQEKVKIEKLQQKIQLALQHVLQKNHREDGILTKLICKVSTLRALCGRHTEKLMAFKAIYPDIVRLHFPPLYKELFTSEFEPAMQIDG
# RORγ = molecular target: T2, RORγ (Homo sapiens, UniProt P51449); assay: RORγ-Gal4 luciferase reporter assay in HEK293 cells (inverse agonism); full-length RORγ-RORE assay IC50 […]; format: cell-based
# T2 construct: gene RORC; also full-length RORγ transcript variant 1
# T2 sequence (P51449 265-507 limits assumed): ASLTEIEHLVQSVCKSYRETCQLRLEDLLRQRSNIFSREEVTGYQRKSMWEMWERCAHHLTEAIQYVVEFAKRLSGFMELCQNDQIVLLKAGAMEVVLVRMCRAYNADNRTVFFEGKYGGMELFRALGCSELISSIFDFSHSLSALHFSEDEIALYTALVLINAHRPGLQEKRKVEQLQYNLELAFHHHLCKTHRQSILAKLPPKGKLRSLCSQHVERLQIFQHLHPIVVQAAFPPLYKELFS
compound,measurement,setting,value
C[C@@H]1CC[C@@]2(OC1)O[C@H]1C[C@H]3[C@@H]4CC=C5C[C@@H](O)CC[C@]5(C)[C@H]4CC[C@]3(C)[C@H]1[C@@H]2C [diosgenin],IC50,RORα,2170 nM
same,IC50,RORγ,1730 nM
